From patent US8415393B2, “Anti-bacterial drug targeting of genome maintenance interfaces” (Wisconsin Alumni Research Foundation, priority 2007, dated 2013)
Changes are numbered by the printed parent chain. Numbers in names are those of the source. ≈ marks a conversion by molar mass, not a printed value. Where two headings read alike, the source gives them in different places. Where no end group is shown, it is not given here. fluorescein = fluorescein moiety attached to the N-terminus of the peptide (N-terminal fluorescein label)

B1: ExoI Glu150 Ala variant (enzyme)
chain: MMNDGKQQSTFLFHDYETFGTHPALDRPAQFAAIRTDSEFNVIGEPEVFYCKPADDYLPQPGAVLITGITPQEARAKGENEAAFAARIHSLFTVPKTCILGYNNVRFDDEVTRNIFYRNFYDPYAWSWQHDNSRWDLLDVMRACYALRPAGINWPENDDGLPSFRLEHLTKANGIEHSNAHDAMADVYATIAMAKLVKTRQPRLFDYLFTHRNKHKLMALIDVPQMKPLVHVSGMFGAWRGNTSWVAPLAWHPENRNAVIMVDLAGDISPLLELDSDTLRERLYTAKTDLGDNAAVPVKLVHINKCPVLAQANTLRPEDADRLGINRQHCLDNLKILRENPQVREKVVAIFAEAEPFTPSDNVDAQLYNGFFSDADRAAMKIVLETEPRNLPALDITFVDKRIEKLLFNYRARNFPGTLDYAEQQRWLEHRRQVFTPEFLQGYADELQMLVQQYADDKEKVALLKALWQYAEEIV
notes: also called E150A; Glu150 variant
B2: ExoI Glu318 Ala variant (enzyme)
chain: B1 chain with A150E, E318A
notes: also called E318A; Glu318 variant
B3: ExoI Lys227 Ala variant (enzyme)
chain: B1 chain with A150E, K227A
notes: basic ridge variant; also called K227A; Lys227 variant

Legend:
[1] = target: Exonuclease I/SSB-Ct complex (Escherichia coli, UniProt P04995); assay: Fluorescence polarization competition: inhibition of fluorescein-SSB C-terminal peptide binding to Exonuclease I (HTS and Ki determination)
Sequence of Exonuclease I/SSB-Ct complex (P04995 whole entry, one chain of several): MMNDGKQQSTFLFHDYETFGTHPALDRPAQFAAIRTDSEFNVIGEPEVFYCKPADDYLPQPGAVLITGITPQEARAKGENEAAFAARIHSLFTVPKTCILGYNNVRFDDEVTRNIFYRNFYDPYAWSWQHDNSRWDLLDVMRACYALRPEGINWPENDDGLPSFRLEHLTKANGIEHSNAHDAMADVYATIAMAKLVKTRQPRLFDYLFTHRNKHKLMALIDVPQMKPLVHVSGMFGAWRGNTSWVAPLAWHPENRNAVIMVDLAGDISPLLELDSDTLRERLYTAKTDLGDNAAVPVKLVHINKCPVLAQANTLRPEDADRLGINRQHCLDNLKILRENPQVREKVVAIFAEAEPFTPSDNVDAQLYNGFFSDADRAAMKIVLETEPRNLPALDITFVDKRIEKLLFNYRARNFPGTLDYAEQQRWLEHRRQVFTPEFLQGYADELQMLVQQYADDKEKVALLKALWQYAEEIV
Procedure: Peptide binding assays were performed in solution, using the peptides from above, and Exonuclease I, in the absence or presence of various compounds. Different amounts of Exonuclease I (ExoI) were used in the peptide binding assays. […] Fluorescence polarization (FP) was measured at 25° C. in triplicate; the average FP value was plotted with standard deviation of the mean shown as error.
Concentrated Exonuclease I was dialyzed overnight into 2 liters dilution buffer (DB) (20 mM Tris pH 8.0 HCl, 100 mM NaCl, 1 mM MgCl2, and 1 mM Beta-Mercaptoethanol). […] After sitting at room temperature for 5 min, a liquid handling system was used to aliquot this solution into 384 well plates providing 30 microliters/well. One microliter of 1 mM compound was then added. The screened compounds were obtained from the ChemBridge DIVERSet library (ChemBridge Corporation, San Diego, Calif.), from the Maybridge HitFinder library (Thermo Fisher Scientific, Waltham, Mass.), from the ChemDiv library (Chemical Diversity Labs, San Diego, Calif.), or from the Known Bioactive Library—KBA01.
The FP (fluorescence polarization) values for each well were read using a (plate reader) 5 minutes after compound addition.
Increasing amounts of compound were titrated into peptide protein mixture until FP values were lowered to values given by only fluorescently labeled peptide alone. Ki values were determined using the Ki calculator for fluorescence-based competitive binding assays of Prof. Shaomeng Wang, University of Michigan (Nikolovska-Coleska et al., 2004, Anal. Biochem. 332: 261-273).

[2] = test system: E. coli 4213 (imp4213, compromised cell wall); assay: microbe, parasite or virus in culture; type: cell-based; conditions: Escherichia coli
Procedure: The compromised cell wall allows the chemicals to pass through it more readily.
(§1) 100 μL of LB containing E. coli 1655, E. coli 4213, or S. aureus at A ˜0.05 OD 600 was aliquoted in 96 well plates. One μL of compound in DMSO was added to final concentrations given. Plates were incubated at 37° C. with shaking at 250 RPM. Rate of growth was calculated by determining the average change in OD/hour that took place between hours 3 and 7 (log growth phase). The graphs shown herein are plots of this bacterial growth rate (change in OD/h) against inhibitor concentration in μM.

[3] = test system: Staphylococcus aureus 12598; assay: Bacterial growth assay in LB liquid media, S. aureus; type: cell-based; conditions: Staphylococcus aureus, 12598
Procedure: as §1

E. coli (imp4213) = assay: MIC on solid media, E. coli; type: cell-based; conditions: Escherichia coli, read-out: MIC (E. coli)
B. subtilis = assay: Growth on solid media (MIC; agar plates with compound), B. subtilis; type: cell-based, Bacillus subtilis; conditions: for MIC / growth on agar plates: Bacillus subtilis; for MIC: solid media, B. subtilis; for Bactericidal for B. subtilis: Table 3 info column; for growth on agar plates: 100 μM compound in agar
Procedure: (§2) A number of the tested candidate compounds had profound inhibitory effects on bacterial growth. In addition, it was discovered that the identified drug compounds can slow the growth of a number of other Gram-positive bacterial species. For example, the growth of Bacillus subtilis and Enterococcus faecalis was inhibited when these bacteria were grown on agar plates containing 100 μM of either compound 9 or compound 10.

[4] = test system: HT-29 (human colorectal adenocarcinoma) cells; assay: Mammalian cell toxicity, CellTiter-Glo cell viability assay; type: cell-based
Procedure: The toxicity of the identified antimicrobial candidate compounds was tested using human colorectal adenocarcinoma cells in vitro. […] The mammalian cells were tested using a CellTiter-Glo cell viability assay (Promega, Madison, Wis.).

red blood cells = assay: In vitro hemolysis; type: cell-based; conditions: for % hemolysis at given concentration: 1 hour; for Hemolysis: Table 3, minimum concentration necessary to lyse red blood cells
Procedure: The identified small molecules were incubated with red blood cells to see what percentage of cells would lyse after 1 hour. Estimated hemolysis data are due to problem with reading absorbance, when the compound absorbs at the same wavelength as heme or if the compound precipitates. In such instances it is difficult to quantitate the absorbance readings; however, visual determination of how many cells have lysed can then be performed, which provides an estimate of cell lysis.

Enterococcus faecalis = assay: Growth on agar plates containing compound, Enterococcus faecalis; type: cell-based; conditions: 100 μM compound in agar
Procedure: as §2

Deinococcus radiodurans = assay: Growth on agar plates containing compound, Deinococcus radiodurans; type: cell-based; conditions: tested in a similar manner (100 μM in agar)
Procedure: as §2

[5] = target: Topoisomerase III (TopoIII)/C-terminal tail of E. coli SSB (Escherichia coli, UniProt P14294); assay: Topoisomerase III peptide binding (fluorescence anisotropy); conditions: 100 μM final concentration, 1% DMSO
Sequence of Topoisomerase III (TopoIII)/C-terminal tail of E. coli SSB (P14294 whole entry): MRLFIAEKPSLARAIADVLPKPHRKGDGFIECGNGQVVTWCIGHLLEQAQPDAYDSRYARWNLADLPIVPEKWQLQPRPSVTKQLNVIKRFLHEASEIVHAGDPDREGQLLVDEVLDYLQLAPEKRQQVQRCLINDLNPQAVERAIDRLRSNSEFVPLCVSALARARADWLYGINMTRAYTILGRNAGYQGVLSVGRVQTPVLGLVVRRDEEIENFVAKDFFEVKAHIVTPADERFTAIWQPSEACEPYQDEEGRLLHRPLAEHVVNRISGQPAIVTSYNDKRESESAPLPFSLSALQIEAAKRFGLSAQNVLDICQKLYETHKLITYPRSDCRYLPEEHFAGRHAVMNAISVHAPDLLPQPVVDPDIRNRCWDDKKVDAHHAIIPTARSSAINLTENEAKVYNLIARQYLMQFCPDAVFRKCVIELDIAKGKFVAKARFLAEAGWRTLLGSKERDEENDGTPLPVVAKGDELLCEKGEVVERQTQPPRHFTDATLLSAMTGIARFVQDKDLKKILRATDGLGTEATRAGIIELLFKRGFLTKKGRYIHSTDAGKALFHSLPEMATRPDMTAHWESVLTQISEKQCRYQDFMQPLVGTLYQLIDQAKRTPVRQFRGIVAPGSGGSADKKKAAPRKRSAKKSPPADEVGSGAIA
Procedure: TopoIII was titrated into 10 nM fluorescent peptide, as described above for the ExoI binding assays. The buffer conditions for this binding assay were: 300 mM NaCl, 20 mM Tris pH 8.0, 10% Glycerol, 1 mM BME (Beta-Mercaptoethanol), and 1% DMSO. Concentrations of TopoIII used are given on the graph in FIG. 24. Changes in anisotropy upon binding were read using PanVera Beacon 2000 FP.
Either unlabeled peptide or various compounds were then added to a final concentration of 100 μM. These compounds and unlabeled peptide were dissolved in DMSO and their addition brought the final concentration of DMSO to 1%.

[6] = target: Escherichia coli Exonuclease I (Escherichia coli) (UniProt P04995); assay: cell-based or functional assay
[7] = target: ExoI Arg316 Ala variant (Escherichia coli) (UniProt P04995); assay: cell-based or functional assay
[8] = target: T1, fluorescein-labeled SSB C-terminal peptide, fluorescein-WMDFDDDIPF (E. coli); assay: equilibrium fluorescence anisotropy
T1 construct: also called F-WT; F-SSB-Ct
T1 peptide: fluorescein-WMDFDDDIPF

[9] = read-out: IC50 μM inhibitor, inhibition of E. coli growth
[10] = read-out: IC(50) E. coli imp4213
[11] = Table 3, reduce growth 50% in liquid media, unit not given (Table 5 gives μM), read-out: IC(50) S. aureus
[12] = Table 5, read-out: IC50 μM inhibitor, inhibition of S. aureus growth
[13] = compound listing, bacterial growth in LB, read-out: IC50 Staphylococcus aureus
[14] = HT-29, Table 3, unit inferred, read-out: IC(50) Human cell line
[15] = HT-29 cells, CellTiter-Glo, read-out: IC50

| Molecule | Ki [1] [µM] | Ki ([1]; Ki estimates, Table 2) [µM] | Ki ([1]; Ki, compound listing) [µM] | IC50 [2, 9] [µM] | IC50 ([2]; read-out: IC50 E. coli 4213) [µM] | IC50 [2, 10] [µM] | IC50 [3, 11] [µM] | IC50 [3, 12] [µM] | IC50 [3, 13] [µM] | MIC (E. coli (imp4213)) [µg/mL] | MIC (B. subtilis) [µg/mL] | IC50 [4, 14] [µM] | IC50 [4, 15] [µM] | Hemolysis (red blood cells) [µM] | other results |
| --- | --- | --- | --- | --- | --- | --- | --- | --- | --- | --- | --- | --- | --- | --- | --- |
| O=C(O)C(Cc1ccccc1)N1C(=O)/C(=C/c2cccc(Br)c2)SC1=S (stereo not shown) [Compound 3, 2-[5-(3-bromobenzylidene)-4-oxo-2-thioxo-1,3-thiazolidin-3-yl]-3-phenylpropanoic acid] | 2.5 | 2.5 | ~2.5 | 6 | 5.5 | 6 | 9 | 9 | 10 | 3.6 (≈ 8.03 µM) | 3.6 (≈ 8.03 µM) | 12 | > 100 | ~100 | Bactericidal for B. subtilis (B. subtilis): Compound 3; also called BOTP. Came from original Maybridge HTS collection. Bactericidal for B. subtilis; % hemolysis at given concentration (red blood cells; 100 μM): 20% 100 |
| COc1ccc(Nc2cc(C(F)(F)F)ccc2Cl)c(C(=O)O)c1 [Compound 10, 2-[2-chloro-5-(trifluoromethyl)anilino]-5-methoxybenzoic acid] | 0.1 | 0.35 | ~0.125 | 30 | 30 | 30 | 20 | 20 | 18 | 12.3 (≈ 35.6 µM) | 11.1 (≈ 32.1 µM) | > 100 | 60 | ~800 | growth on agar plates (B. subtilis): inhibited; growth on agar plates (Enterococcus faecalis): inhibited; growth on agar plates (Deinococcus radiodurans): inhibited; % hemolysis at given concentration (red blood cells; 400 μM): 0% 400; % hemolysis at given concentration (red blood cells; 800 μM): 85% at 800 μM; inhibition of fluorescent peptide binding to TopoIII (anisotropy) [5]: inhibit binding |
| CC(C)(C)C1=NN(c2nc3ccc(Cl)cc3s2)C(=O)C1 [Compound 9, 3-(tert-butyl)-1-(6-chloro-1,3-benzothiazol-2-yl)-4,5-dihydro-1H-pyrazol-5-one] | 0.8 | 2.2 | ~0.773 | 6 | 6 | 6 | 6 | 6 | 5.5 | 9 (≈ 29.2 µM) | 6.2 (≈ 20.1 µM) | > 100 | 38 | >800 | growth on agar plates (B. subtilis): inhibited; growth on agar plates (Enterococcus faecalis): inhibited; growth on agar plates (Deinococcus radiodurans): inhibited; % hemolysis at given concentration (red blood cells; >800 μM): 0% >800 |
| E. coli single-stranded DNA-binding protein (from UniProt P0AGE0 2-178) | – | – | – | – | – | – | – | – | – | – | – | – | – | – | ExoI nuclease activity on radiolabeled ssDNA, stimulation by SSB [6]: 4 fold; SSB-stimulated ExoI nuclease activity [7]: < 2 fold |
| CC(/C=C1\SC(=S)N(C(C(=O)O)c2ccccc2)C1=O)=C\c1ccccc1 (stereo not shown) [Compound 8, [5-(2-methyl-3-phenyl-2-propen-1-ylidene)-4-oxo-2-thioxo-1,3-thiazolidin-3-yl](phenyl)acetic acid] | 4 | 4 | ~4 | 11 | 11 | 11 | 29 | 30 | 29 | 4 (≈ 10.1 µM) | 6.3 (≈ 15.9 µM) | > 100 | > 100 | ~200 | Bactericidal for B. subtilis (B. subtilis): Compound 8; also called MPTA. Came from original Maybridge HTS collection. Bactericidal for B. subtilis; % hemolysis at given concentration (red blood cells; 200 μM): estimated 0% 200; % hemolysis at given concentration (red blood cells; 400 μM): estimated 90% 400 uM |
| B1 | – | – | – | – | – | – | – | – | – | – | – | – | – | – | fold enhanced binding relative to wild-type ExoI [8]: ~2 fold |
| B2 | – | – | – | – | – | – | – | – | – | – | – | – | – | – | fold enhanced binding relative to wild-type ExoI [8]: ~2 fold |
| B3 | – | – | – | – | – | – | – | – | – | – | – | – | – | – | fold binding defect [8]: 7 fold |
